In patent publication US20210317134A1, “UBIQUITIN-SPECIFIC-PROCESSING PROTEASE 7 (USP7) MODULATORS AND USES THEREOF” (RAPT THERAPEUTICS, INC., priority 2019, published 2021):

Molecular target: USP7 (Homo sapiens, UniProt Q93009)
Assay: USP7 inhibitory potency (Table 1)
Format: biochemical

USP7, sequence (Q93009 whole entry): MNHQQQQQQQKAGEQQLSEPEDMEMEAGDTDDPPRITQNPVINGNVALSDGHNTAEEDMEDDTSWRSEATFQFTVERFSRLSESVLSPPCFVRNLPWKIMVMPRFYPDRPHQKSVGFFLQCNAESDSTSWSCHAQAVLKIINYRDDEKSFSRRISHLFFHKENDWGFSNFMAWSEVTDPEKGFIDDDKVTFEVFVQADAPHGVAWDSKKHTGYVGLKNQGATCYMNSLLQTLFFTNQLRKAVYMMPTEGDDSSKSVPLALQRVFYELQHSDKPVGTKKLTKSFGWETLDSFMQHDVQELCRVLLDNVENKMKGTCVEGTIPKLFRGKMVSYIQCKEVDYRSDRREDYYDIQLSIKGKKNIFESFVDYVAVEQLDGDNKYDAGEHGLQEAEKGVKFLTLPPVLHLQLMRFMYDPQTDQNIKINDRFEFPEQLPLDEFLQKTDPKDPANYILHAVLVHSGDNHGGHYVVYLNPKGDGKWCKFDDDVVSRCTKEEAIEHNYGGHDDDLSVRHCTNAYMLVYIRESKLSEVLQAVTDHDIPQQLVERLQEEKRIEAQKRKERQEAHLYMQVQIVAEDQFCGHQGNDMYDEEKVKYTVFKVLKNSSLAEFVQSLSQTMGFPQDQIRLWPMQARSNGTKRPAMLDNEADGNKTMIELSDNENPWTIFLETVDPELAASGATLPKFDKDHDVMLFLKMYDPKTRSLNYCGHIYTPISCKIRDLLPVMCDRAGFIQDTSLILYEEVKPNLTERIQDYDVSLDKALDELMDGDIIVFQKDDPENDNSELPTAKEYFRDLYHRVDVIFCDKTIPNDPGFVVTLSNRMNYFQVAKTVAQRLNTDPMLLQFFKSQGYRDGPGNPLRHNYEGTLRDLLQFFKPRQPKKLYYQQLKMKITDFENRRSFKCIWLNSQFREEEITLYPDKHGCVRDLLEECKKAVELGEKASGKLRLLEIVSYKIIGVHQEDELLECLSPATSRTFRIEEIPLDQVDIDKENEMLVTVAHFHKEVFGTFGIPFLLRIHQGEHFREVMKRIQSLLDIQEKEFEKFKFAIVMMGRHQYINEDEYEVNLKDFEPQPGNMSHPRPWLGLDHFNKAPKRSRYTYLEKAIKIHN

Row | SMILES | IC50 [nM]
1 | CCC(O)(CO)c1cc2nccc(-c3cc(Cl)cc4c3O[C@@H](C(=O)N3CCNCC3)C4)c2s1 (stereo partly drawn) [((2R)-5-chloro-7-(2-(1,2-dihydroxybutan-2-yl)thieno[3,2-b]pyridin-7-yl)-2,3-dihydrobenzofuran-2-yl)(piperazin-1-yl)methanone] | < 1000
2 | N#Cc1ccc2nccc(-c3cc(Cl)cc4c3OC(C(=O)N3CCNCC3)C4)c2c1 (stereo not drawn) [4-(5-chloro-2-(piperazine-1-carbonyl)-2,3-dihydrobenzofuran-7-yl)quinoline-6-carbonitrile] | 10000 to 30000
3 | CCC(O)c1cc2nccc(-c3cc(Cl)cc4c3O[C@@H](c3ocnc3CN(C)C)C4)c2s1 (stereo partly drawn) [1-(7-((R)-5-chloro-2-(4-((dimethylamino)methyl)oxazol-5-yl)-2,3-dihydrobenzofuran-7-yl)thieno[3,2-b]pyridin-2-yl)propan-1-ol] | < 1000
4 | COc1ccc2nccc(-c3cc(Cl)cc4c3OC(C(=O)N3CCNCC3)C4)c2c1 (stereo not drawn) [(5-chloro-7-(6-methoxyquinolin-4-yl)-2,3-dihydrobenzofuran-2-yl)(piperazin-1-yl)methanone] | 10000 to 30000
5 | O=C(C1Cc2cc(Cl)cc(-c3ccnc4[nH]ccc34)c2O1)N1CCN(c2ccncn2)CC1 (stereo not drawn) [(5-chloro-7-(1H-pyrrolo[2,3-b]pyridin-4-yl)-2,3-dihydrobenzofuran-2-yl)(4-(pyrimidin-4-yl)piperazin-1-yl)methanone] | 1000 to 10000
6 | CCC(N)c1cc2nccc(-c3cc(Cl)cc4c3O[C@@H](c3onc5c3CNCC5)C4)c2s1 (stereo partly drawn) [1-(7-((R)-5-chloro-2-(4,5,6,7-tetrahydroisoxazolo[4,3-c]pyridin-3-yl)-2,3-dihydrobenzofuran-7-yl)thieno[3,2-b]pyridin-2-yl)propan-1-amine] | 1000 to 10000
7 | CC(C)CC(O)c1cc2nccc(-c3cc(Cl)cc4c3O[C@@H](c3onc5c3CNCC5)C4)c2s1 (stereo partly drawn) [1-(7-((R)-5-chloro-2-(4,5,6,7-tetrahydroisoxazolo[4,3-c]pyridin-3-yl)-2,3-dihydrobenzofuran-7-yl)thieno[3,2-b]pyridin-2-yl)-3-methylbutan-1-ol] | < 1000
8 | O=C(C1Cc2cc(Cl)cc(-c3ccnc4[nH]ccc34)c2O1)N1CCC(O)(c2cccc3ncccc23)CC1 (stereo not drawn) [(5-chloro-7-(1H-pyrrolo[2,3-b]pyridin-4-yl)-2,3-dihydrobenzofuran-2-yl)(4-hydroxy-4-(quinolin-5-yl)piperidin-1-yl)methanone] | 1000 to 10000
9 | O=C(C1Cc2cc(Cl)cc(-c3ccnc4[nH]ccc34)c2O1)N1CCN(C2CCNCC2)CC1 (stereo not drawn) [(5-chloro-7-(1H-pyrrolo[2,3-b]pyridin-4-yl)-2,3-dihydrobenzofuran-2-yl)(4-(piperidin-4-yl)piperazin-1-yl)methanone] | 10000 to 30000
10 | O=C(Nc1ccc(F)cc1)c1cc2c(-c3cc(Cl)cc4c3OC(C(=O)N3CCNCC3)C4)ccnc2[nH]1 (stereo not drawn) [4-(5-chloro-2-(piperazine-1-carbonyl)-2,3-dihydrobenzofuran-7-yl)-N-(4-fluorophenyl)-1H-pyrrolo[2,3-b]pyridine-2-carboxamide] | 1000 to 10000
11 | CN(C)[C@@H]1CCc2noc([C@H]3Cc4cc(Cl)cc(-c5ccnc6cc(CO)sc56)c4O3)c2C1 [(7-((R)-5-chloro-2-((R)-5-(dimethylamino)-4,5,6,7-tetrahydrobenzo[c]isoxazol-3-yl)-2,3-dihydrobenzofuran-7-yl)thieno[3,2-b]pyridin-2-yl)methanol] | < 1000
12 | O=C(C1Cc2cc(Cl)cc(-c3ccnc4[nH]ccc34)c2O1)N1CCN[C@@H](CO)C1 (stereo partly drawn) [(5-chloro-7-(1H-pyrrolo[2,3-b]pyridin-4-yl)-2,3-dihydrobenzofuran-2-yl)((R)-3-(hydroxymethyl)piperazin-1-yl)methanone] | 1000 to 10000
13 | O=C(C1Cc2cc(Cl)cc(-c3ccnc4c3CCC4)c2O1)N1CCNCC1 (stereo not drawn) [(5-chloro-7-(6,7-dihydro-5H-cyclopenta[b]pyridin-4-yl)-2,3-dihydrobenzofuran-2-yl)(piperazin-1-yl)methanone] | < 1000
14 | CCC(O)c1cc2nccc(-c3cc(Cl)cc4c3O[C@@H](c3ocnc3CN3CCOCC3)C4)c2s1 (stereo partly drawn) [1-(7-((R)-5-chloro-2-(4-(morpholinomethyl)oxazol-5-yl)-2,3-dihydrobenzofuran-7-yl)thieno[3,2-b]pyridin-2-yl)propan-1-ol] | 1000 to 10000
15 | O=C(C1Cc2cc(Cl)cc(-c3ccnc4[nH]ccc34)c2O1)N1CCC(c2cnc[nH]2)CC1 (stereo not drawn) [(4-(1H-imidazol-5-yl)piperidin-1-yl)(5-chloro-7-(1H-pyrrolo[2,3-b]pyridin-4-yl)-2,3-dihydrobenzofuran-2-yl)methanone] | 1000 to 10000

Next, values leading:

Row | IC50 [nM] | SMILES
16 | < 1000 | O=C([C@H]1CCc2cc(Cl)cc(-c3ccnc4cc(CO)sc34)c2O1)N1CCNCC1 [(R)-(6-chloro-8-(2-(hydroxymethyl)thieno[3,2-b]pyridin-7-yl)chroman-2-yl)(piperazin-1-yl)methanone]
17 | < 1000 | N#Cc1cc2c(c(-c3ccnc4cc(CO)sc34)c1)O[C@@H](C(=O)N1CCNCC1)C2 [(R)-7-(2-(hydroxymethyl)thieno[3,2-b]pyridin-7-yl)-2-(piperazine-1-carbonyl)-2,3-dihydrobenzofuran-5-carbonitrile]
18 | 1000 to 10000 | Fc1cccc2c(-c3cc(Cl)cc4c3O[C@@H](c3onc5c3CNCC5)C4)ccnc12 [(R)-3-(5-chloro-7-(8-fluoroquinolin-4-yl)-2,3-dihydrobenzofuran-2-yl)-4,5,6,7-tetrahydroisoxazolo[4,3-c]pyridine]
19 | < 1000 | O=C([C@H]1Cc2cc(Cl)cc(-c3ccnc4cc(CN5C(=O)c6ccccc6C5=O)sc34)c2O1)N1CCNCC1 [(R)-2-((7-(5-chloro-2-(piperazine-1-carbonyl)-2,3-dihydrobenzofuran-7-yl)thieno[3,2-b]pyridin-2-yl)methyl)isoindoline-1,3-dione]
20 | < 1000 | O=C([C@H]1Cc2cc(Cl)cc(-c3ccnc4cc(CCNS(=O)(=O)c5ccccc5)sc34)c2O1)N1CCNCC1 [(R)-N-(2-(7-(5-chloro-2-(piperazine-1-carbonyl)-2,3-dihydrobenzofuran-7-yl)thieno[3,2-b]pyridin-2-yl)ethyl)benzenesulfonamide]
21 | < 1000 | CN(C)S(=O)(=O)NCCc1cc2nccc(-c3cc(Cl)cc4c3O[C@@H](C(=O)N3CCNCC3)C4)c2s1 [(R)-N-(2-(7-(5-chloro-2-(piperazine-1-carbonyl)-2,3-dihydrobenzofuran-7-yl)thieno[3,2-b]pyridin-2-yl)ethyl)dimethylamimosulfonylurea]
22 | 1000 to 10000 | CC(=O)NC(C)(C)c1cc2nccc(-c3cc(Cl)cc4c3O[C@@H](C(=O)N3CCNCC3)C4)c2s1 [(R)-N-(2-(7-(5-chloro-2-(piperazine-1-carbonyl)-2,3-dihydrobenzofuran-7-yl)thieno[3,2-b]pyridin-2-yl)propan-2-yl)acetamide]
23 | < 1000 | CCC(=O)NCc1cc2nccc(-c3cc(Cl)cc4c3O[C@@H](c3onc5c3CNCC5)C4)c2s1 [(R)-N-((7-(5-chloro-2-(4,5,6,7-tetrahydroisoxazolo[4,3-c]pyridin-3-yl)-2,3-dihydrobenzofuran-7-yl)thieno[3,2-b]pyridin-2-yl)methyl)propionamide]
24 | < 1000 | CN(C)S(=O)(=O)CCc1cc2nccc(-c3cc(Cl)cc4c3O[C@@H](C(=O)N3CCNCC3)C4)c2s1 [(R)-2-(7-(5-chloro-2-(piperazine-1-carbonyl)-2,3-dihydrobenzofuran-7-yl)thieno[3,2-b]pyridin-2-yl)-N,N-dimethylethane-1-sulfonamide]
25 | < 1000 | CCC(O)c1cc2nccc(-c3cc(Cl)cc4c3O[C@@H](c3onc5c3CNCC5)C4)c2s1 (stereo partly drawn) [drawing 1570, 1-(7-((R)-5-chloro-2-(4,5,6,7-tetrahydroisoxazolo[4,3-c]pyridin-3-yl)-2,3-dihydrobenzofuran-7-yl)thieno[3,2-b]pyridin-2-yl)propan-1-ol]
26 | 1000 to 10000 | CC(=O)NCc1ccc2c(-c3cc(Cl)cc4c3O[C@@H](c3onc5c3CNCC5)C4)ccnc2c1 [(R)-N-((4-(5-chloro-2-(4,5,6,7-tetrahydroisoxazolo[4,3-c]pyridin-3-yl)-2,3-dihydrobenzofuran-7-yl)quinolin-7-yl)methyl)acetamide]
27 | < 1000 | O=C1CCC(=O)N1Cc1cc2nccc(-c3cc(Cl)cc4c3O[C@@H](c3onc5c3CNCC5)C4)c2s1 [(R)-1-((7-(5-chloro-2-(4,5,6,7-tetrahydroisoxazolo[4,3-c]pyridin-3-yl)-2,3-dihydrobenzofuran-7-yl)thieno[3,2-b]pyridin-2-yl)methyl)pyrrolidine-2,5-dione]
28 | < 1000 | CC[C@H](O)c1cc2nccc(-c3cc(Cl)cc4c3O[C@@H](C(=O)N3CCNCC3)C4)c2s1 [((R)-5-chloro-7-(2-((S)-1-hydroxypropyl)thieno[3,2-b]pyridin-7-yl)-2,3-dihydrobenzofuran-2-yl)(piperazin-1-yl)methanone]
29 | < 1000 | O=C([C@H]1Cc2cc(Cl)cc(-c3ccnc4cc(CN5C(=O)CSC5=O)sc34)c2O1)N1CCNCC1 [(R)-3-((7-(5-chloro-2-(piperazine-1-carbonyl)-2,3-dihydrobenzofuran-7-yl)thieno[3,2-b]pyridin-2-yl)methyl)thiazolidine-2,4-dione]
30 | < 1000 | O[C@@]1(c2cc3nccc(-c4cc(Cl)cc5c4O[C@@H](c4onc6c4CNCC6)C5)c3s2)CCOC1 [(S)-3-(7-((R)-5-chloro-2-(4,5,6,7-tetrahydroisoxazolo[4,3-c]pyridin-3-yl)-2,3-dihydrobenzofuran-7-yl)thieno[3,2-b]pyridin-2-yl)tetrahydrofuran-3-ol]
31 | < 1000 | CS(=O)(=O)NCc1cc2nccc(-c3cc(Cl)cc4c3O[C@@H](C(=O)N3CCNCC3)C4)c2s1 [(R)-N-((7-(5-chloro-2-(piperazine-1-carbonyl)-2,3-dihydrobenzofuran-7-yl)thieno[3,2-b]pyridin-2-yl)methyl)methanesulfonamide]
32 | 1000 to 10000 | O=C1CCC(=O)N1Cc1ccc2c(-c3cc(Cl)cc4c3O[C@@H](c3onc5c3CNCC5)C4)ccnc2c1 [(R)-1-((4-(5-chloro-2-(4,5,6,7-tetrahydroisoxazolo[4,3-c]pyridin-3-yl)-2,3-dihydrobenzofuran-7-yl)quinolin-7-yl)methyl)pyrrolidine-2,5-dione]
33 | < 1000 | O=C([C@H]1Cc2cc(Cl)cc(-c3ccnc4cc(CN5C(=O)CCCC5=O)sc34)c2O1)N1CCNCC1 [(R)-1-((7-(5-chloro-2-(piperazine-1-carbonyl)-2,3-dihydrobenzofuran-7-yl)thieno[3,2-b]pyridin-2-yl)methyl)piperidine-2,6-dione]
